≈ marks a conversion by molar mass, not a printed value. Like-named read-outs stand apart in the source and are kept apart here.
Tests used:
[1] = system: C. difficile 630 (ATCC BAA-1382); experiment: Broth microdilution MIC assay, C. difficile 630; assay type: cell-based, Clostridium difficile; conditions: strain 630, MtzS, median of n = 4; for MIC: Clostridioides difficile, ATCCBAA1382, read-out: MIC C. difficile 630
Outline: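 Compounds two-fold serially diluted against overnight anaerobic BHIS cultures of the strain, following CLSI methods modified in broth and inoculum for C. difficile. Plates incubated 24 h at 37 °C; MIC is the lowest concentration without visible growth, median reported with range.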

HepG2 cells = experiment: Resazurin cytotoxicity assay, HepG2; assay type: cell-based, Human; conditions: for S.I (CC50/EC50), second value of a split cell: HepG2 CC50 / G. lamblia WB EC50
Outline: (§1)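 Cells pre-cultured 24 h in DMEM/10% FBS at 37 °C, then exposed 24 h to compound dilution series (top 100 μM). Viability by 5 μM resazurin, 2 h, fluorescence 560/590 nm; 1% Triton X-100 as lysis control; CC50 from curve fitting.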

G. lamblia WB (MtzS) = experiment: ATP-bioluminescence growth/survival EC50 assay, G. lamblia WB; conditions: for S.I (CC50/EC50): average cytotoxicity against HEK293 and HepG2 / G. lamblia WB activity
Procedure: (§2) Compounds were screened for antiparasitic activity using an ATP-bioluminescence based assay for cell growth and survival, [24]. […] Viable cell numbers were determined in triplicate using the CellTiter-Glo Luminescent Cell Viability Assay.

[2] = system: C. difficile NAP1/027 (ATCC BAA-1803); experiment: Broth microdilution MIC assay, C. difficile NAP1/027; assay type: cell-based, Clostridium difficile; conditions: strain NAP1/027; for MIC: Clostridioides difficile, ATCCBAA1803
Outline: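 Strains grown anaerobically in BHIS at 37 °C overnight; compounds two-fold serially diluted (64 to 0.03 μg/mL) in pre-reduced medium under anaerobic atmosphere (5% H2, 10% CO2, 85% N2). Plates incubated 24 h at 37 °C; MIC taken as lowest concentration without visible growth, median of replicates reported.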

E. histolytica HM1:IMSS = experiment: ATP-bioluminescence growth/survival EC50 assay, E. histolytica; assay type: cell-based, Entamoeba histolytica
Procedure: as §2

HEK293 cells = experiment: Resazurin cytotoxicity assay, HEK293; assay type: cell-based, Human; conditions: for Selectivity index (CC50/EC50): HEK293 CC50 / G. lamblia WB EC50
Outline: as §1

[3] = Plasma protein binding by ultrafiltration; assay type: in vitro ADME; conditions: human, pooled human plasma (100%), 5 μM, 100% human plasma, 37 °C, 30 min, ultrafiltration; for fraction unbound at 0.5 h, 5 µM: read-out: Plasma protein binding (% bound) (converted)
Procedure: Plasma Protein Binding (PPB) was performed using an Ultrafiltration method, [28]. […] Samples were incubated at […] for 30 min, then centrifuged at 14,000 × g for 8 min, with the clear supernatant transferred to a vial for LC/MS/MS analysis. […] The fraction of unbound compound was calculated by determining the concentration of the filtered sample and the concentration of unfiltered sample. […] LC/MS/MS parameters are detailed in the supplementary information (Supplementary Table 1).

T. vaginalis F1623 = experiment: ATP-bioluminescence growth/survival EC50 assay, T. vaginalis; assay type: cell-based, Trichomonas vaginalis
Procedure: as §2

G. lamblia 713M3 (MtzR) = experiment: ATP-bioluminescence growth/survival EC50 assay, G. lamblia 713M3; assay type: cell-based, Giardia lamblia
Procedure: as §2

[4] = Resazurin cytotoxicity assay, HepG2; assay type: cell-based, Human; conditions: human, 24 h
Outline: as §1

[5] = Metabolic stability in liver microsomes; assay type: in vitro ADME, human; conditions: 5 μM, human liver microsomes 1 mg/mL, NADPH
Procedure: Metabolic stability studies were performed with human liver microsomes (HMMC-PL, Lot# PL050B-B, Thermo Fisher Scientific USA) with test compound (5 μM) degradation monitored by LC/MS/MS analysis. Stock solutions (2.5 mM) of the test compounds were prepared in DMSO. […] The reaction was initiated by addition of NADPH solution (cofactor) in potassium phosphate buffer (final concentration 1 mM). Aliquots (180 μL) from the reaction mixture were withdrawn (t = 0, 10, 30, 60 and 120 min) and quenched by adding ice-cold stop solution (540 μL) comprising 0.5 μM carbutamide internal standard in acetonitrile: methanol: formic acid (1: 1: 0.001). Reaction samples were incubated at 4 °C for 30 min, centrifuged at 14,000 × g for 8 min and the clear supernatant was transferred to a vial for LC/MS/MS analysis. The percentage of compound metabolised at different times was calculated as a percentage of the levels at the start of incubation (t = 0 min sample). Matrix blank was also prepared as a control. […] LC/MS/MS parameters are detailed in the supplementary information (Supplementary Table 1).

[6] = Resazurin cytotoxicity assay, HEK293; assay type: cell-based, Human; conditions: human, 24 h
Outline: as §1

[7] = read-out: EC50 G. lamblia WB, MtzS strain WB, minimum n = 3
[8] = MtzS, minimum n = 3, read-out: EC50 E. histolytica HM1:IMSS
[9] = Trichomonas vaginalis, read-out: EC50 T. vaginalis F1623, MtzS, minimum n = 3
[10] = Trichomonas vaginalis, read-out: pEC50 ± SE T. vaginalis F1623, MtzS (converted)
[11] = Giardia duodenalis, read-out: EC50 G. lamblia 713M3, MtzR strain 713M3, minimum n = 3
[12] = Giardia duodenalis, read-out: pEC50 ± SE G. lamblia 713M3, MtzR strain 713M3 (converted)
[13] = HepG2 cells, highest concentration 100 μM, n = 3, read-out: CC50 Hep G2
[14] = Giardia duodenalis, read-out: EC50 G. lamblia WB, MtzS strain WB, minimum n = 3
[15] = Giardia duodenalis, read-out: pEC50 ± SE G. lamblia WB, MtzS strain WB (converted)
[16] = Entamoeba histolytica, read-out: EC50 E. histolytica HM1:IMSS
[17] = Entamoeba histolytica, read-out: pEC50 ± SE E. histolytica HM1:IMSS (converted)
[18] = HEK293 cells, highest concentration 100 μM, n = 3, read-out: CC50 HEK 293

## 1-(cyclohexylmethyl)-4-nitro-1H-imidazole-2-carboxamide [Compound 13g]
[1]
  MIC C. difficile 630: >64 µg/mL
HepG2 cells
  CC50: > 100 µM
G. lamblia WB (MtzS); MtzS strain WB
  pEC50 ± SE G. lamblia WB: 5.30 ± 0.06
G. lamblia WB (MtzS)
  S.I (CC50/EC50): >20
G. lamblia WB (MtzS); [7]
  EC50: 5 µM
[2]
  MIC C. difficile NAP1/027: >64 µg/mL
E. histolytica HM1:IMSS; MtzS
  pEC50 ± SE E. histolytica HM1:IMSS: < 4.3
E. histolytica HM1:IMSS; [8]
  EC50: > 50 µM
HEK293 cells
  CC50: > 100 µM

## 1-(cyclopropylmethyl)-4-nitro-1H-imidazole-2-carboxamide [Compound 13f]
[1]
  MIC C. difficile 630: >64 µg/mL
HepG2 cells
  CC50: > 100 µM
G. lamblia WB (MtzS); MtzS strain WB
  pEC50 ± SE G. lamblia WB: < 4.3
G. lamblia WB (MtzS); [7]
  EC50: > 50 µM
[2]
  MIC C. difficile NAP1/027: >64 µg/mL
E. histolytica HM1:IMSS; MtzS
  pEC50 ± SE E. histolytica HM1:IMSS: < 4.3
E. histolytica HM1:IMSS; [8]
  EC50: > 50 µM
HEK293 cells
  CC50: > 100 µM

## Cn1c([N+](=O)[O-])cnc1C(=O)NCc1ccc(F)cc1 [Compound 8a, N-(4-fluorobenzyl)-1-methyl-5-nitro-1H-imidazole-2-carboxamide]
[3]; read-out: Plasma protein binding (% bound)
  fraction unbound at 30 min, 5 μM: ≤ 0.06
[3]
  fraction unbound at 0.5 h, 5 µM: 0.05
[1]
  MIC: > 64 µg/mL
T. vaginalis F1623; [9]
  EC50: 5.2 µM
T. vaginalis F1623; [10]
  EC50: 5.25 µM
G. lamblia 713M3 (MtzR); [11]
  EC50: 13 µM
G. lamblia 713M3 (MtzR); [12]
  EC50: 12.9 µM
[4]; [13]
  CC50 at 24 h: > 100 µM
G. lamblia WB (MtzS); [14]
  EC50: 3.5 µM
G. lamblia WB (MtzS); [15]
  EC50: 3.47 µM
G. lamblia WB (MtzS)
  S.I (CC50/EC50): >29
[5]
  Microsome stability (% remaining at 2 h): 88 % remaining
[2]
  MIC: > 64 µg/mL
E. histolytica HM1:IMSS; [16]
  EC50: 9.7 µM
E. histolytica HM1:IMSS; [17]
  EC50: 9.77 µM
[6]; [18]
  CC50 at 24 h: > 100 µM

## Cn1c([N+](=O)[O-])cnc1C(=O)NCc1cccc(OC(F)(F)F)c1 [Compound 8c, 1-methyl-5-nitro-N-(3-(trifluoromethoxy)benzyl)-1H-imidazole-2-carboxamide]
[1]
  MIC C. difficile 630: 32 to 64 µg/mL
T. vaginalis F1623; MtzS
  pEC50 ± SE T. vaginalis F1623: 5.09 ± 0.09
T. vaginalis F1623; MtzS, minimum n = 3, read-out: EC50 T. vaginalis F1623
  EC50: 8.1 µM
G. lamblia 713M3 (MtzR); MtzR strain 713M3
  pEC50 ± SE G. lamblia 713M3: 5.84 ± 0.69
G. lamblia 713M3 (MtzR); MtzR strain 713M3, minimum n = 3, read-out: EC50 G. lamblia 713M3
  EC50: 1.5 µM
HepG2 cells
  CC50: > 100 µM
G. lamblia WB (MtzS); MtzS strain WB
  pEC50 ± SE G. lamblia WB: 5.51 ± 0.02
G. lamblia WB (MtzS)
  S.I (CC50/EC50): >32
G. lamblia WB (MtzS); [7]
  EC50: 3.1 µM
[2]
  MIC C. difficile NAP1/027: 64 µg/mL (≈ 186 µM)
E. histolytica HM1:IMSS; MtzS
  pEC50 ± SE E. histolytica HM1:IMSS: 4.77 ± 0.02
E. histolytica HM1:IMSS; [8]
  EC50: 17 µM
HEK293 cells
  CC50: > 100 µM

## O=C(NCc1ccc(OC(F)(F)F)cc1)c1ncc([N+](=O)[O-])[nH]1 [Compound 12b, 5-nitro-N-(4-(trifluoromethoxy)benzyl)-1H-imidazole-2-carboxamide]
[1]
  MIC: 16 µg/mL (≈ 48.5 µM)
T. vaginalis F1623; [9]
  EC50: 2.2 µM
T. vaginalis F1623; [10]
  EC50: 2.24 µM
G. lamblia 713M3 (MtzR); [11]
  EC50: 2.5 µM
G. lamblia 713M3 (MtzR); [12]
  EC50: 2.51 µM
HepG2 cells
  S.I (CC50/EC50), second value of a split cell: 465
[4]; [13]
  CC50 at 24 h: 93 µM
[4]; HepG2 cells, read-out: pCC50 ± SE Hep G2 (converted)
  CC50 at 24 h: 93.3 µM
G. lamblia WB (MtzS); [14]
  EC50: 0.2 µM
G. lamblia WB (MtzS); [15]
  EC50: 0.245 µM
[2]
  MIC: 8 to 16 µg/mL (≈ 24.2 to 48.5 µM)
E. histolytica HM1:IMSS; [16]
  EC50: 4.5 µM
E. histolytica HM1:IMSS; [17]
  EC50: 4.47 µM
HEK293 cells
  Selectivity index (CC50/EC50): > 500
[6]; highest concentration 100 μM, n = 3, read-out: CC50 HEK 293
  CC50 at 24 h: > 100 µM

## O=C(c1ncc([N+](=O)[O-])[nH]1)N1CCOCC1 [Compound 12h, Morpholino(5-nitro-1H-imidazol-2-yl)methanone]
[3]
  fraction unbound at 0.5 h, 5 µM: 0.22
[1]
  MIC: 2 µg/mL (≈ 8.84 µM)
T. vaginalis F1623; [9]
  EC50: 2.9 µM
T. vaginalis F1623; [10]
  EC50: 2.88 µM
G. lamblia 713M3 (MtzR); [11]
  EC50: > 20 µM
G. lamblia 713M3 (MtzR); [12]
  EC50: > 20 µM
[4]; [13]
  CC50 at 24 h: > 100 µM
G. lamblia WB (MtzS); [14]
  EC50: 8.8 µM
G. lamblia WB (MtzS); [15]
  EC50: 8.71 µM
G. lamblia WB (MtzS)
  S.I (CC50/EC50): >11
[5]
  Microsome stability (% remaining at 2 h): 100 % remaining
[2]
  MIC: 2 µg/mL (≈ 8.84 µM)
E. histolytica HM1:IMSS; [16]
  EC50: 5.1 µM
E. histolytica HM1:IMSS; [17]
  EC50: 5.13 µM
[6]; [18]
  CC50 at 24 h: > 100 µM

## O=C(NO)c1nc([N+](=O)[O-])cn1Cc1ccc(OC(F)(F)F)cc1 [Compound 14d, N-hydroxy-4-nitro-1-(4-(trifluoromethoxy)benzyl)-1H-imidazole-2-carboxamide]
[1]
  MIC: 16 µg/mL (≈ 46.2 µM)
HepG2 cells
  S.I (CC50/EC50), second value of a split cell: > 20
[4]; highest concentration 100 μM, n = 3, read-out: CC50 Hep G2
  CC50 at 24 h: > 100 µM
G. lamblia WB (MtzS); [14]
  EC50: 5.1 µM
G. lamblia WB (MtzS); [15]
  EC50: 5.13 µM
[2]
  MIC: 16 µg/mL (≈ 46.2 µM)
E. histolytica HM1:IMSS; [16]
  EC50: 10 µM
E. histolytica HM1:IMSS; [17]
  EC50: 10 µM
HEK293 cells
  Selectivity index (CC50/EC50): 7
[6]; [18]
  CC50 at 24 h: 36 µM
[6]; HEK293 cells, read-out: pCC50 ± SE HEK293 (converted)
  CC50 at 24 h: 36.3 µM
